Results from publication PMC12873548, “D-amino acid substitution and cyclization enhance the stability and antimicrobial activity of arginine-rich peptides” (Microbiology, 2026).
Where two headings read alike, the source gives them in different places. Residues, ends and D or L forms follow the SMILES beside them. No end group written: not given here. *: point of attachment. NHhexadecyl = CCCCCCCCCCCCCCCCN*

How the values were obtained:
S. aureus = test: Intracellular ROS, DCFH-DA; format: cell-based, Staphylococcus aureus; conditions: peptides at MIC, 1/2× MIC, 1/4× MIC, 4 h, 37 °C
Method: (§1) Total reactive oxygen species (ROS) was measured using an oxidation-sensitive fluorescent dye, 2′,7′-dichlorodihydrofluorescein diacetate (DCFH-DA). For this assay, E. coli and S. aureus cultures were adjusted to an OD600 of 0.3 in MH broth and exposed to peptides at MIC, 1/2× MIC and 1/4× MIC, or to positive control (5 mM H2O2) for 4 h at 37 °C. Cells were centrifuged at 4,000 r.p.m. for 10 min at 4 °C and resuspended in PBS containing 10 µM DCFH-DA. The suspension was incubated under the same conditions for 30 min. Finally, cells were washed twice with PBS, and 150 µl aliquots were transferred to 96-well plates. Oxidized DCF products were detected using a Tecan Spark® microplate reader with excitation at 485 nm and emission at 530 nm. Additionally, 10 µl of E. coli cells incubated with D-R4F4 at MIC, 1/2×MIC and 1/4×MIC was collected for imaging using an All-in-One Fluorescence Microscope (Keyence, Japan).

E. coli ATCC 25922 [1] = test: Membrane integrity, PI uptake; format: cell-based, Escherichia coli; conditions: E. coli ATCC 25922, 5 µg ml−1 PI, 1 h
Method: (§2) Propidium iodide (PI) uptake was used to assess the permeabilization of the bacterial membrane upon incubation with peptides. E. coli and S. aureus cells, adjusted to an OD600 of 0.5, were placed into a 96-well plate containing 5 mM HEPES buffer (pH 7.4, supplemented with 5 mM glucose) and incubated with 5 µg ml^−1 PI for 15 min. Afterwards, different peptide concentrations were added, and PI uptake was rapidly measured every 10 min over a 1 h period using a Tecan Spark® microplate reader (λex=515 nm, λem=620 nm).

E. coli ATCC 25922 [2] = test: Cytoplasmic membrane depolarization, DiSC3(5); format: cell-based, Escherichia coli; conditions: peptide at 2× MIC or 1,000 µM, positive control Triton X-100
Method: The dye 3,3′-dipropylthiadicarbocyanine iodide DiSC3(5) was employed to evaluate perturbation of the bacterial membrane by our designed arginine-rich peptides. For this, a black 96-well microtiter plate containing 150 µl E. coli cells (OD600=0.5) in MH broth per well was incubated with 0.5 µM DiSC3(5) in 5 mM HEPES buffer (pH 7.4, supplemented with 5 mM glucose and 0.1 M KCl) for 15 min to allow for fluorescence quenching. Then, 2× MIC or 1 mM peptide was added, and changes in fluorescence were monitored in real-time (λex=622 nm, λem=670 nm) using a microplate reader.

E. coli [3] = test: Intracellular ROS, DCFH-DA; format: cell-based, Escherichia coli; conditions: peptides at MIC, 1/2× MIC, 1/4× MIC, 4 h, 37 °C
Method: as §1

S. aureus ATCC 12600 = test: Membrane integrity, PI uptake; format: cell-based, Staphylococcus aureus; conditions: S. aureus ATCC 12600, 5 µg ml−1 PI, 1 h
Method: as §2

P. aeruginosa (PA01) [4] = format: cell-based, Pseudomonas aeruginosa; conditions: for MIC, Control: control without serum or trypsin; for MIC, Trypsin: peptide incubated with 5 µM SGMT trypsin in 50 mM Tris-HCl, 1 mM CaCl2, pH 7.6, 24 h at 37 °C before MIC; for MIC, 20% human serum: peptide incubated with 20% human serum 24 h at 37 °C before MIC; for MIC, 50% human serum: peptide incubated with 50% human serum 24 h at 37 °C before MIC
Method: (§3) The MIC of arginine-based peptides was assessed using the microbroth dilution approach. Our in vitro screening included a panel of Gram-negative bacteria, Escherichia coli (ATCC 25922 and enterohaemorrhagic O157:H7) and Pseudomonas aeruginosa (PA01 and the drug-resistant strain NCTC 13437), and Gram-positive bacteria (Staphylococcus aureus ATCC 12600). Five-millilitre overnight cultures in Lysogeny broth, prepared from single isolated colonies, were diluted to 5×10^6 c.f.u. ml^−1 mid-log phase in Mueller–Hinton (MH) broth. Next, peptide concentrations (0 to 1 mM) were serially diluted twofold in 96-well plates and incubated overnight at 37 °C with the tested bacterial strains. In each case, the MIC was determined as the lowest peptide concentration at which no detectable bacterial growth was observed, employing an absorbance-based assay using a Tecan Spark® multimode plate reader. Subsequently, 10 µl aliquots from each peptide dilution were transferred to MH agar (1.5%) plates to determine the minimum bactericidal concentration (MBC) which was assessed by establishing at which concentration no visible growth of bacteria (assessed via colony formation) on the plate was observed.
(§4) The antimicrobial activity and structural stability of arginine-rich peptides were evaluated in the presence of human serum (20% and 50 %) and 5 µM Sequencing Grade Modified Trypsin (SGMT, Promega). Briefly, fresh human blood was collected in EDTA tubes and allowed to clot at room temperature for 1 h. Serum was then collected following centrifugation at 2,000 r.p.m. for 10 min at 4 °C. Peptides were incubated with 20%, 50% human serum and 5 µM SGMT in 50 mM Tris-HCl buffer (1 mM CaCl₂, pH 7.6) for 24 h at 37 °C. After the incubation period, the solutions were further incubated with E. coli (ATCC 25922 and O157:H7), P. aeruginosa (PA01, NCTC13437) and S. aureus (ATCC12600), and the MIC was assessed as described in the ‘Antibacterial assessment’ section. Additionally, the samples were analysed using electrospray ionization MS to monitor structural changes based on the molecular weight of the peptides.

L929 fibroblasts = format: cell-based; conditions: 24 h
Method: The toxicity screening of arginine-rich peptides was conducted in two cell types: human red blood cells (hRBCs) and L929 fibroblasts. The peptide-induced lysis of hRBCs was estimated based on the release of haemoglobin into solution, following a previously established protocol with slight modifications. Briefly, fresh human blood was collected from a healthy donor. To isolate hRBCs from plasma, the blood was centrifuged at 2,000 r.p.m. for 10 min at 4 °C, and the cells were carefully resuspended in 0.5% suspension buffer. After, they were added to a 96-well plate containing various concentrations of peptides diluted in PBS. After incubation for 1 h at 37 °C, cells were spun at 2,000 r.p.m. for 10 min at 4 °C to pellet cell debris and the supernatant collected and measured at OD414. The data was calculated as the % haemolysis relative to the positive control (cells treated with 1% Triton X-100). The toxicity screening using L929 fibroblasts was based on the metabolic activity of cells using an MTS colourimetric assay (Fig. S2). […] The absorbance was measured at OD490 using a Tecan Spark multimode plate reader. The quantification of viable cells was expressed as a % and determined by comparing peptide-treated groups with control cells grown in their absence. […]

P. aeruginosa (PA01) [5] = format: cell-based, Pseudomonas aeruginosa; conditions: for MIC: 24 h
Method: as §3

[6] = system: Gram-positive and Gram-negative bacteria; format: cell-based; conditions: span of MIC and MBC against both Gram-positive and Gram-negative bacteria, Table 2
Method: as §3

E. coli (O157:H7) = format: cell-based, Escherichia coli; conditions: for MBC: 10 µl aliquots plated on MH agar, no visible colonies; for MIC: MH broth, 5×10^6 cells, 24 h, 37 °C, absorbance 600 nm, triplicate
Method: as §3

E. coli (ATCC25922) = format: cell-based, Escherichia coli; conditions: E. coli ATCC25922; for MBC: 10 µl aliquots plated on MH agar, no visible colonies; for MIC: MH broth, 5×10^6 cells, 24 h, 37 °C, absorbance 600 nm, triplicate
Method: as §3

E. coli (25922) = format: cell-based, Escherichia coli; conditions: for MIC, Control: control without serum or trypsin; for MIC, Trypsin: peptide incubated with 5 µM SGMT trypsin in 50 mM Tris-HCl, 1 mM CaCl2, pH 7.6, 24 h at 37 °C before MIC; for MIC, 20% human serum: peptide incubated with 20% human serum 24 h at 37 °C before MIC; for MIC, 50% human serum: peptide incubated with 50% human serum 24 h at 37 °C before MIC
Method: as §3, §4

S. aureus (12600) = format: cell-based, Staphylococcus aureus; conditions: for MIC, Control: control without serum or trypsin; for MIC, Trypsin: peptide incubated with 5 µM SGMT trypsin in 50 mM Tris-HCl, 1 mM CaCl2, pH 7.6, 24 h at 37 °C before MIC; for MIC, 20% human serum: peptide incubated with 20% human serum 24 h at 37 °C before MIC; for MIC, 50% human serum: peptide incubated with 50% human serum 24 h at 37 °C before MIC
Method: as §3, §4

S. aureus (ATCC12600) = format: cell-based, Staphylococcus aureus
Method: as §3

[7] = system: P. aeruginosa (NCTC13437); format: cell-based, Pseudomonas aeruginosa; conditions: P. aeruginosa NCTC13437 (drug-resistant)
Method: as §3

E. coli [8] = test: Live/dead SYTO 9/PI fluorescence imaging; format: cell-based, Escherichia coli; conditions: mid-log phase E. coli, 2× MIC; red = damaged membranes
[9] = molecular target: T1, Sequencing Grade Modified Trypsin (Sus scrofa, UniProt P00761); test: Stability with trypsin by LC-MS; format: in vitro ADME; conditions: 5 µM SGMT trypsin, 50 mM Tris-HCl, 1 mM CaCl2, pH 7.6, 24 h, 37 °C; read-out LC-MS (ESI)
T1 construct: purchased Promega
Method: as §4

[10] = P. aeruginosa PA01, 10 µl aliquots plated on MH agar, no visible colonies
[11] = P. aeruginosa PA01, MH broth, 5×10^6 cells, 37 °C, absorbance 600 nm, triplicate
[12] = S. aureus ATCC12600, 10 µl aliquots plated on MH agar, no visible colonies
[13] = S. aureus ATCC12600, MH broth, 5×10^6 cells, 24 h, 37 °C, absorbance 600 nm, triplicate

T1 sequence (P00761 9-231): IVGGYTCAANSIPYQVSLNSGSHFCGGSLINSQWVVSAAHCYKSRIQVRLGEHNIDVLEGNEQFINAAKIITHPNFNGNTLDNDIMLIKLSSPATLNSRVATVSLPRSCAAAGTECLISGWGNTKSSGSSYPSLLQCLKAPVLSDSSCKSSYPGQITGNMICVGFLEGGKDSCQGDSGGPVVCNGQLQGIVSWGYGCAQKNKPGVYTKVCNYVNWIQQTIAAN

Compound | Cytoplasmic membrane depolarization, DiSC3(5) fluorescence (E. coli ATCC 25922 [2]) | MIC, Control (P. aeruginosa (PA01) [4]) | MIC, Trypsin (P. aeruginosa (PA01) [4]) | MIC, 20% human serum (P. aeruginosa (PA01) [4]) | MIC, 50% human serum (P. aeruginosa (PA01) [4]) | EC50 (L929 fibroblasts) [µM] | MBC (P. aeruginosa (PA01) [5]; [10]) | MIC (P. aeruginosa (PA01) [5]; [11]) | MBC (E. coli (O157:H7)) | MIC (E. coli (O157:H7)) | MBC (E. coli (ATCC25922)) | MIC (E. coli (ATCC25922)) | MIC, Control (E. coli (25922)) | MIC, Trypsin (E. coli (25922)) | MIC, 20% human serum (E. coli (25922)) | MIC, 50% human serum (E. coli (25922)) | MIC, Control (S. aureus (12600)) | MIC, Trypsin (S. aureus (12600)) | MIC, 20% human serum (S. aureus (12600)) | MIC, 50% human serum (S. aureus (12600)) | further results
CCCCCCCCCCCCCCCCNC(=O)[C@H](CCCNC(=N)N)NC(=O)[C@H](CCCNC(=N)N)NC(=O)[C@H](CCCNC(=N)N)NC(=O)[C@@H](N)CCCNC(=N)N [Peptide R4-C16] (H-RRRR-NHhexadecyl; N-terminus and C-terminus assumed) | significantly higher fluorescence levels compared to the positive control |  |  |  |  |  |  |  |  |  |  |  |  |  |  |  |  |  |  |  | Intracellular ROS levels (S. aureus): highest modulation of ROS levels; PI uptake, membrane integrity (E. coli ATCC 25922 [1]): membrane-disruptive activity; Intracellular ROS levels (E. coli [3]): highest modulation of ROS levels; PI uptake, membrane integrity (S. aureus ATCC 12600): membrane-disruptive activity
CCCCCCCCCCCCCCCCNC(=O)[C@H](Cc1ccccc1)NC(=O)[C@H](Cc1ccccc1)NC(=O)[C@H](Cc1ccccc1)NC(=O)[C@H](Cc1ccccc1)NC(=O)[C@H](CCCNC(=N)N)NC(=O)[C@H](CCCNC(=N)N)NC(=O)[C@H](CCCNC(=N)N)NC(=O)[C@@H](N)CCCNC(=N)N [Peptide R4F4-C16] (H-RRRRFFFF-NHhexadecyl; N-terminus and C-terminus assumed) | Greater effects | >1,000 μM | >1,000 μM | >1,000 μM | >1,000 μM | 70 | >1,000/>1,000 μM | >1,000/>1,000 μM | >1,000/>1,000 μM | >1,000/>1,000 μM | 1,000/>1,000 μM | 1,000/>1,000 μM | 1,000 μM | >1,000 μM | 1,000 μM | >1,000 μM | >1,000 μM | >1,000 μM | >1,000 μM | >1,000 μM | MIC and MBC values over all tested strains [6]: > 1,000 µM; MBC (S. aureus (ATCC12600); [12]): >1,000/>1,000 μM; MIC (S. aureus (ATCC12600); [13]): >1,000/>1,000 μM
Polymyxin B [reference compound] |  | 2.4 µM | 2.4 µM | 2.4 µM | 2.4 µM |  | 4.8 µM | 2.4 µM | 4.8 µM | 4.8 µM | 4.8 µM | 2.8 µM | 2.8 µM | 2.4 µM | 2.8 µM | 2.4 µM | >76.8 µM | >76.8 µM | >76.8 µM | >76.8 µM | MBC ([7]; 10 µl aliquots plated on MH agar, no visible colonies): 38.4 µM; MIC ([7]; MH broth, 5×10^6 cells, 24 h, 37 °C, absorbance 600 nm, triplicate): 9.6 µM; Membrane damage, live/dead SYTO 9/PI staining (E. coli [8]): high presence of red-stained cells indicative of damaged membranes; MBC (S. aureus (ATCC12600); [12]): > 76.8 µM; MIC (S. aureus (ATCC12600); [13]): > 76.8 µM
RRRRFFFF [Peptide R4F4] |  |  |  |  |  | 481 |  |  |  |  |  |  |  |  |  |  |  |  |  |  | MBC (P. aeruginosa (PA01) [5]): 250 µM; MIC (P. aeruginosa (PA01) [5]): 125 µM; Stability with trypsin (LC chromatogram and mass spectrum) [9]: degraded into smaller fragments; MBC (S. aureus (ATCC12600); ATCC12600): 250 µM; MIC (S. aureus (ATCC12600); ATCC12600, 24 h): 125 µM
